The source of these data is patent publication US9180155B2, “Compositions from Nigella sativa” (Bio Nexus, Ltd, priority 2013, dated 2015).

One experiment deals with Caco-2 monolayers. Kind of experiment: t10-CLA-induced loss of TEER in Caco-2 monolayers. It counts as cell-based, human. The following applies: t10-CLA 50 μM control = 100; μg TQ equivalents/mL: Thymoquinone 5.0, NS8 0.11, NS9 0.99, NS10 0.012, NSSpent#2 0.0005; NSSpent#1 5 μg/mL. The text has this:
The protocol for growing and differentiation the human Caco-2 colon andenocarcinoma cells was a modification of Protocol 3 as described by Yamashita et al. [[…]., and Furuyama, Y. 2002) New and better protocols for a short-term Caco-2 cell culture system, J Pharm Sci 91, 669-679]. Caco-2 Human Colon Adenocarcinoma cells were obtained from ATCC (Rockville, Md.; catalog #HTB-37) and maintained in a growth media: DMEM (Dulbecco's Modified Eagles Medium 1×) containing L-glutamine, glucose; Cellgro catalog #35-010CV with the following additions: (1) Penicillin (5,000 IU/mL)/Streptomycin (5,000 μg/mL) Cellgro catalog #30-001C1, (2) 10% FBS-Fetal Bovine Serum, Characterized; Hyclone catalog #SH30071.3, and (3) 1% NEAA-Non Essential Amino Acids; Cellgro catalog #25-025-CI; cells were cultured at 37 C in a humidified air-5% CO2 atmosphere in T175 flasks. BIOCOAT^R HTS Caco-2 Assay System kits (Becton Dickinson, N.J.; catalog #354801) consisting of 24-well fibrillar collagen coated inserts and feeder trays were used in all experiments and plated as follows. Media was removed from the T175 flasks and cells were washed with 10 mLs PBS (phosphate buffered saline 1× without Ca^++, without Mg^++; Cellgro #25-053-CI). […]

In experiment [1] the test system is adiponectin secretion in 3T3-L1 adipocytes. The experiment is described as follows: Adiponectin secretion in t10-CLA-stimulated 3T3-L1 adipocytes. It counts as cell-based, murine. The procedure: The 3T3-L1 murine fibroblast model as used in Example 4 was used in this experiments. Test materials were added four hours prior to the addition of t10-CLA at a concentration of 50 μM. Following overnight incubation, the supernatant media were sampled for determination of IL-6 and adiponectin. The adiponectin secreted into the medium was quantified using the Mouse Adiponectin Quantikine® Immunoassay kit with no modifications (R&D Systems, Minneapolis, Minn.). […] Test materials and were assayed in duplicate, while solvent controls were replicated eight times. IL-6 and adiponectin secretion were represented relative to the IL-6 and adiponectin secretion of the t10-CLA only controls as the IL-6 and adiponectin index and differences among the means were analyzed by the student's t-test assuming a five percent probability of a type I error (Excel; Microsoft, Redmond, Wash.).

The test system of experiment [2] is IL-6 secretion in 3T3-L1 adipocytes. Kind of experiment: IL-6 secretion in t10-CLA-stimulated 3T3-L1 adipocytes. It counts as cell-based, murine. The procedure: The 3T3-L1 murine fibroblast model as used in Example 4 was used in this experiments. Test materials were added four hours prior to the addition of t10-CLA at a concentration of 50 μM. Following overnight incubation, the supernatant media were sampled for determination of IL-6 and adiponectin. The IL-6 secreted into the medium in response to […] stimulation was quantified using the Quantikine® Mouse IL-6 Immunoassay kit with no modifications (R&D Systems, Minneapolis, Minn.). […] All supernatant media samples were diluted 1:30 for quantification. Test materials and were assayed in duplicate, while solvent controls were replicated eight times. IL-6 and adiponectin secretion were represented relative to the IL-6 and adiponectin secretion of the t10-CLA only controls as the IL-6 and adiponectin index and differences among the means were analyzed by the student's t-test assuming a five percent probability of a type I error (Excel; Microsoft, Redmond, Wash.).

Another experiment deals with AMPK. The experiment is described as follows: AMPK activation (pT172-AMPK) in C2C12 myocytes. It counts as cell-based, Mouse. Particulars: 1 mM. The protocol: Mouse C2C12 myoblasts were obtained from American Type Culture Collection (Manassas, Va.), and were maintained in Dulbecco's modified Eagle's medium (DMEM) supplemented with 10% fetal bovine serum at 37° C. under a humidified atmosphere of 5% CO2.
C2C12 cells were seeded at an initial density of 6×10^4 cells/cm^2 in 24-well plates. For two days, the cells were allowed grow to reach confluence. Following confluence, the cells were forced to differentiate into myocytes by culturing in DMEM supplemented with 2% horse serum for seven days.
On Day 8 to 10 post differentiation, C2C12 myocytes were incubated in serum-free DMEM plus 0.5% BSA (bovine serum albumin) for three hours. […]
pT^172-AMPK was quantified using the Biosource AMPK Immunoassay Kit (Camarillo, Calif.) without modification. Protein content of the cell lysates was determined with the Active Motif fluorescent protein assay reagent (Carlsbad Calif., Hoefelschweiger, B. K., Duerkop, A., and Wolfbeis, O. S, Novel type of general protein assay using a chromogenic and fluorogenic amine-reactive probe. Anal Biochem 2005, 344, 122-9). A Packard Fluorocount spectrofluorometer (Model#BF 10000, Meridan, Conn.) was used for protein determination and a MEL312e BIO-KINETICS READER (Bio-Tek Instruments, Winooski, Vt.) was used for quantification of pT^172-AMPK. […]

The mark [3] stands for this setting: t10-CLA 50 μM control = 100, μg TQ equivalents/mL: Thymoquinone 5.0, NS8 0.11, NS9 0.99, NS10 0.012, NSSpent#2 0.0005, NSSpent#1 5 μg/mL.

Molecules are shown by their SMILES.

For `CCCCC/C=C\C=C\CCCCCCCCC(=O)O` (single isomer, unassigned) [t10-CLA, Trans-10,Cis12-Conjugated Linoleic Acid Isomer], in the experiment with Caco-2 monolayers, the “Relative Loss of TEER” value stood at 100 ± 5.81. The “reduction in adiponectin secretion relative to controls” value in experiment [1] (50 μM, overnight) stood at 65%. Besides, the “Adiponectin Index” value in experiment [1] (setting [3]) is recorded as 100 ± 14. The “increase in IL-6 secretion relative to controls” value in experiment [2] (50 μM, overnight) is reported as 8 fold. The “IL-6 Index” value in experiment [2] (setting [3]) was 100 ± 11.

With `NC(=O)c1ncn([C@@H]2O[C@H](CO)[C@@H](O)[C@H]2O)c1N` [AICAR, 5-Aminoimidazole-4-carboxamide ribonucleoside], the “increase of pT172-AMPK relative to DMSO negative controls” value in the experiment with AMPK (30 min, average over ten independent assays (95% CI=1.26-2.21)) worked out at 1.67 fold. Moreover, the “activation of AMPK” value in the experiment with AMPK (in assays run with N. sativa supercritical CO2 extracts) is reported as 1.45 fold.
